Experimental data: patent publication US9040458B2, “Safening composition of 6-(trisubstituded phenyl)-4-amino-2-pyridinecarboxylate herbicides and cloquintocet-mexyl for cereal crops” (Dow AgroSciences LLC, priority 2008, dated 2015)
Counter-ions that a name gives are not always drawn.

What was measured:
[1] = test system: HORVS = Hordeum vulgare (spring barley); assay: Postemergence herbicidal safening, greenhouse, visual injury; format: in vivo; settings: 20-22 d
Protocol: (§1) Seeds of the desired test plant species were planted in Sun Gro MetroMix® 306 planting mixture, which typically has a pH of 6.0 to 6.8 and an organic matter content of about 30 percent, in plastic pots with a surface area of 103.2 square centimeters (cm^2). When required to ensure good germination and healthy plants, a fungicide treatment and/or other chemical or physical treatment was applied. The plants were grown for 7-36 days (d) in a greenhouse with an approximate […] photoperiod which was maintained at about 18° C. during the day and 17° C. during the night. Nutrients and water were added on a regular basis and supplemental lighting was provided with overhead metal halide 1000-Watt lamps as necessary. The plants were employed for testing when they reached the second or third true leaf stage.
(§2) Weighed amounts of esters (methyl) or salts (TEA [triethylammonium], potassium [K]) of 4-amino-3-chloro-6-(4-chloro-2-fluoro-3-methoxyphenyl)pyridine-2-carboxylic acid (Compound 1) were dissolved in a volume of 97:3 volume/volume (v/v) acetone/dimethylsulfoxide (DMSO) to obtain stock solutions. […] The concentrated stock solutions were diluted with an aqueous mixture of 1.5% v/v of Agri-dex crop oil concentrate to provide the appropriate application rates. Compound requirements are based upon a 12 mL application volume at a rate of 187 liters per hectare (L/ha). Stocks solutions of the safeners were prepared following the same procedure. Spray solutions of the safeners and experimental compound mixtures were prepared by adding the appropriate volume of both stock solutions to the appropriate amount of dilution solution to form a 12 mL spray solution with active ingredients in two-way combinations. Formulated compounds were applied to the plant material with an overhead Mandel track sprayer equipped with 8002E nozzles calibrated to deliver 187 L/ha over an application area of 0.503 square meters (m^2) at a spray height of 18 inches (43 centimeters (cm)) above average plant canopy. Control plants were sprayed in the same manner with the solvent blank.
(§3) The treated plants and control plants were placed in a greenhouse as described above and watered by sub-irrigation to prevent wash-off of the test compounds. After 20-22 d, the condition of the test plants as compared with that of the control plants was determined visually and scored on a scale of 0 to 100 percent where 0 corresponds to no injury and 100 corresponds to complete kill.
(§4) Colby's equation was used to determine the herbicidal effects expected from the mixtures (Colby, S. R., Calculation of the synergistic and antagonistic response of herbicide combinations. Weeds 1967, 15, 20-22.).
(§5) The following equation was used to calculate the expected activity of mixtures containing two active ingredients, A and B: Expected=A+B−(A×B/100)
(§6) A=observed efficacy of active ingredient A at the same concentration as used in the mixture.
(§7) B=observed efficacy of active ingredient B at the same concentration as used in the mixture.

[2] = test system: TRZAS = Triticum aestivum (spring wheat); assay: as above; format: in vivo; settings: 20-22 d
Protocol: as §1, §2, §3, §4, §5, §6, §7

[3] = test system: TRZAW = Triticum aestivum (winter wheat); assay: as above; format: in vivo; settings: applied alone at 140 g/ha, 20-22 d
Protocol: as §1, §2, §3, §4, §5, §6, §7

HORVW (winter barley) = assay: as above; format: in vivo, Hordeum vulgare; settings: applied alone at 140 g/ha, 20-22 d
Protocol: as §1, with “stage. […]” for “stage.”
The treated plants and control plants were placed in a greenhouse as described above and watered by sub-irrigation to prevent wash-off of the test compounds. After 20-22 d, the condition of the test plants as compared with that of the control plants was determined visually and scored on a scale of 0 to 100 percent where 0 corresponds to no injury and 100 corresponds to complete kill. […]

[4] = test system: GALAP = Galium aparine (cleavers); assay: Postemergence herbicidal activity, greenhouse, visual injury; format: in vivo; settings: applied alone at 140 g/ha; 20-22 d
Protocol: as §1, §2, §3, §4, §5, §6, §7

[5] = test system: KCHSC = Kochia scoparia (kochia); assay: as above; format: in vivo; settings: applied alone at 140 g/ha, 20-22 d
Protocol: as §1, §2, §3, §4, §5, §6, §7

[6] = test system: MATCH = Matricaria chamomila (scented mayweed); assay: as above; format: in vivo; settings: applied alone at 140 g/ha, 20-22 d
Protocol: as §1, §2, §3, §4, §5, §6, §7

[7] = test system: SASKR = Salsola iberica (Russian thistle); assay: as above; format: in vivo; settings: applied alone at 140 g/ha, 20-22 d
Protocol: as §1, §2, §3, §4, §5, §6, §7

[8] = test system: VERPE = Veronica persica (bird's-eye speedwell); assay: as above; format: in vivo; settings: applied alone at 140 g/ha, 20-22 d
Protocol: as §1, §2, §3, §4, §5, §6, §7

[9] = test system: VIOTR = Viola tricolor (wild pansy); assay: as above; format: in vivo; settings: applied alone at 140 g/ha, 20-22 d
Protocol: as §1, §2, §3, §4, §5, §6, §7

[10] = test system: LAMPU (purple deadnettle); assay: as above; format: in vivo, Lamium purpureum; settings: 20-22 d
Protocol: as §1, §2, §3, §4, §5, §6, §7

PAPRH (corn poppy) = assay: as above; format: in vivo, Papaver rhoeas; settings: 20-22 d
Protocol: as §1, §2, §3, §4, §5, §6, §7

[11] = test system: TRZDU = Triticum durum (durum wheat); assay: Postemergence herbicidal safening, greenhouse, visual injury; format: in vivo; settings: applied alone at 140 g/ha; 20-22 d
Protocol: as §1, §2, §3, §4, §5, §6, §7

[12] = test system: STEME = Stellaria media (common chickweed); assay: Postemergence herbicidal activity, greenhouse, visual injury; format: in vivo; settings: applied alone at 140 g/ha; 20-22 d
Protocol: as §1, §2, §3, §4, §5, §6, §7

POLCO (wild buckwheat) = assay: as above; format: in vivo, Polygonum convolvulus; settings: applied alone at 140 g/ha; 20-22 d
Protocol: as §1, §2, §3, §4, §5, §6, §7

[13] = applied alone at 8.75 g/ha, listed as 1 Methyl Ester
[14] = applied alone at 35 g/ha, listed as 1 Methyl Ester
[15] = applied alone at 35 g/ha, listed as (I) Methyl ester
[16] = applied alone at 140 g/ha, listed as 1 Methyl Ester
[17] = applied alone at 8.75 g/ha, listed as (1) TEA salt
[18] = applied alone at 35 g/ha, listed as (1) TEA salt
[19] = applied alone at 140 g/ha, listed as (1) TEA salt

COc1c(Cl)ccc(-c2cc(N)c(Cl)c(C(=O)O)n2)c1F [Compound 1 Methyl Ester, 4-amino-3-chloro-6-(4-chloro-2-fluoro-3-methoxyphenyl)pyridine-2-carboxylic acid]
HORVS Ob (observed injury) [1, 13]: 22% | HORVS Ob (observed injury) [1, 14]: 38% | HORVS Ob (observed injury) [1, 15]: 43% | HORVS Ob (observed injury) [1, 16]: 42% | TRZAS Ob (observed injury) [2, 13]: 13% | TRZAS Ob (observed injury) [2, 14]: 43% | TRZAS Ob (observed injury) [2, 15]: 45% | TRZAS Ob (observed injury) ([2]; applied alone at 70 g/ha, listed as 1 Methyl Ester): 25% | TRZAS Ob (observed injury) [2, 16]: 37% | TRZAW Ob (observed injury) ([3]; listed as 1 Methyl Ester): 32% | HORVW Ob (observed injury) (HORVW (winter barley); listed as 1 Methyl Ester): 42% | GALAP Ob (observed injury) [4]: 100% | KCHSC Ob (observed injury) ([5]; listed as 1 Methyl Ester): 100% | MATCH Ob (observed injury) ([6]; listed as 1 Methyl Ester): 82% | SASKR Ob (observed injury) ([7]; listed as 1 Methyl Ester): 91% | VERPE Ob (observed injury) ([8]; listed as 1 Methyl Ester): 91% | VIOTR Ob (observed injury) ([9]; listed as 1 Methyl Ester): 67% | LAMPU Ob (observed injury) ([10]; applied alone at 35 g/ha): 100% | PAPRH Ob (observed injury) (PAPRH (corn poppy); applied alone at 35 g/ha): 97%

COc1c(Cl)ccc(-c2cc(N)c(Cl)c(C(=O)O)n2)c1F [Compound (1) TEA salt, 4-amino-3-chloro-6-(4-chloro-2-fluoro-3-methoxyphenyl)pyridine-2-carboxylic acid]
HORVS Ob (observed injury) [1, 17]: 25% | HORVS Ob (observed injury) [1, 18]: 23% | HORVS Ob (observed injury) [1, 19]: 23% | TRZAS Ob (observed injury) [2, 17]: 5% | TRZAS Ob (observed injury) [2, 18]: 15% | TRZAS Ob (observed injury) ([2]; applied alone at 70 g/ha, listed as (1) TEA salt): 10% | TRZAS Ob (observed injury) [2, 19]: 27% | TRZAW Ob (observed injury) ([3]; listed as (1) TEA salt): 24% | TRZDU Ob (observed injury) [11]: 10% | HORVW Ob (observed injury) (HORVW (winter barley); listed as (1) TEA salt): 15% | KCHSC Ob (observed injury) ([5]; listed as (1) TEA salt): 95% | MATCH Ob (observed injury) ([6]; listed as (1) TEA salt): 84% | SASKR Ob (observed injury) ([7]; listed as (1) TEA salt): 86% | STEME Ob (observed injury) [12]: 88% | VERPE Ob (observed injury) ([8]; listed as (1) TEA salt): 89% | VIOTR Ob (observed injury) ([9]; listed as (1) TEA salt): 66% | LAMPU Ob (observed injury) ([10]; applied alone at 140 g/ha): 98% | PAPRH Ob (observed injury) (PAPRH (corn poppy); applied alone at 140 g/ha): 100% | POLCO Ob (observed injury) (POLCO (wild buckwheat)): 100%
